# Laboratory results as given in patent US5472942A, “Anti-thrombins” (priority 1988, dated 1995).
# System: human blood
# Assay: Partial thromboplastic time
# Conditions: equivalent doses; anti-thrombin of the invention compared with hirudin
# Text: The anti-thrombin according to the invention and hirudin do however, have similar partial thromboplastic times for equivalent doses.
substance,measurement,value
hirudin: thrombin-specific polypeptide of 65 amino acids from Hirudo medicinalis [reference compound],partial thromboplastic times,similar
